Test results published in ChEMBL document CHEMBL3046186, “Identification of ZINC02765569: a potent inhibitor of PTP1B by vHTS” (2013).

Experiments:
[1] = molecular target: T1, Tyrosine-protein phosphatase non-receptor type 1 (Rattus norvegicus) (UniProt P20417); assay: Inhibition of PTP1B in Rattus norvegicus (rat) L6 cells assessed as cellular 2-deoxy-D-[U-14C]glucose uptake at 10 to 50 uM after 18 hr relative to control; format: cell-based
T1 sequence (whole entry): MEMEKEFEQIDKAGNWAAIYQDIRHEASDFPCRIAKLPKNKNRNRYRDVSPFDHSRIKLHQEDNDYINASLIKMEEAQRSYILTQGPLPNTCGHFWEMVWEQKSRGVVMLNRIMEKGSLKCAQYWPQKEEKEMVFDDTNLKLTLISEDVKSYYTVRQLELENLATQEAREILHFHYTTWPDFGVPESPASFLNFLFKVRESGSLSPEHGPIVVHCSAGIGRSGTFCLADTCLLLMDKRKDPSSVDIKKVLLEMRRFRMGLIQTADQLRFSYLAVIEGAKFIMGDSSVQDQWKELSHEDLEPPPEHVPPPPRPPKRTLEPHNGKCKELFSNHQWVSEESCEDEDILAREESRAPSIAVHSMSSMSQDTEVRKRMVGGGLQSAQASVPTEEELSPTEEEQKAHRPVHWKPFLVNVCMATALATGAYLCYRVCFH

[2] = molecular target: T1, Tyrosine-protein phosphatase non-receptor type 1 (Rattus norvegicus); assay: Ratio of metformin activity to compound activity for inhibition of PTP1B in Rattus norvegicus (rat) L6 cells; format: cell-based
Rattus norvegicus [3] = assay: Antihyperglycemic activity in sucrose-loaded Rattus norvegicus Wistar albino (rat) diabetic model assessed as glucose reduction at 30 mg/kg measured at 5 hr relative to control; format: functional; set-up: scale not given: the % may be the effect or the level left
Rattus norvegicus [4] = assay: Antihyperglycemic activity in sucrose-challenged streptozotocin-induced Rattus norvegicus Wistar albino (rat) diabetic model assessed as glucose reduction at 30 mg/kg measured at 24 hr relative to control; format: functional; set-up: scale not given: the % may be the effect or the level left
Rattus norvegicus [5] = assay: Antihyperglycemic activity in sucrose-challenged streptozotocin-induced Rattus norvegicus Wistar albino (rat) diabetic model assessed as glucose reduction at 30 mg/kg measured at 5 hr relative to control; format: functional; set-up: scale not given: the % may be the effect or the level left
[6] = molecular target: T2, Tyrosine-protein phosphatase non-receptor type 1 (Homo sapiens) (UniProt P18031); assay: Inhibition of Homo sapiens (human) recombinant PTP1B at 10 uM relative to control
T2 sequence (whole entry): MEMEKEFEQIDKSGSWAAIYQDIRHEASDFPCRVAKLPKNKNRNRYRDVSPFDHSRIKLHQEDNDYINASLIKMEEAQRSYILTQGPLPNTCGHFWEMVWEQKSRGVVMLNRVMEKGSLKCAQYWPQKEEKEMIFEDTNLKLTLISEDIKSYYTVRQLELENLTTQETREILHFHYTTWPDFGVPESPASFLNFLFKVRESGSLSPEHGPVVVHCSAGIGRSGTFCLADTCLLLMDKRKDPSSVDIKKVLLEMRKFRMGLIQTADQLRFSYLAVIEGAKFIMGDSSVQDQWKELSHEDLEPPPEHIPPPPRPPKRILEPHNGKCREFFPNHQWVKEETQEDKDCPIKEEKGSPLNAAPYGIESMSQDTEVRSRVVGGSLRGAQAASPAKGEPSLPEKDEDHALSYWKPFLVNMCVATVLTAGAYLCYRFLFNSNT

[7] = molecular target: T1, Tyrosine-protein phosphatase non-receptor type 1 (Rattus norvegicus); assay: Ratio of rosiglitazone activity to compound activity for inhibition of PTP1B in Rattus norvegicus (rat) L6 cells; format: cell-based
Rattus norvegicus [8] = assay: Antihyperglycemic activity in sucrose-loaded Rattus norvegicus Wistar albino (rat) diabetic model assessed as glucose reduction at 30 mg/kg measured at 24 hr relative to control; format: functional; set-up: scale not given: the % may be the effect or the level left
[9] = molecular target: T1, Tyrosine-protein phosphatase non-receptor type 1 (Rattus norvegicus); assay: Inhibition of PTP1B in Rattus norvegicus (rat) L6 cells assessed as cellular 2-deoxy-D-[U-14C]glucose uptake at 500 uM after 18 hr relative to control; format: cell-based

Row | inhibition [1] | Ratio [2] | inhibition [6] | Ratio [7] | inhibition [9] | Structure (SMILES) | Activity (Rattus norvegicus [3]) | Activity (Rattus norvegicus [4]) | Activity (Rattus norvegicus [5]) | Activity (Rattus norvegicus [8])
1 | 18.5% | 50 | 24.2% | 10 | – | O=C(CSc1nc2ccccc2[nH]1)Nc1cccc(C(=O)O)c1 | 32% | 45% | 48% | 33%
2 | – | – | 20% | – | – | Cc1ccc(C(=O)Nc2ccc(S(=O)(=O)O)c3cc(S(=O)(=O)O)cc(S(=O)(=O)O)c23)cc1NC(=O)c1cccc(NC(=O)Nc2cccc(C(=O)Nc3cc(C(=O)Nc4ccc(S(=O)(=O)O)c5cc(S(=O)(=O)O)cc(S(=O)(=O)O)c45)ccc3C)c2)c1 | – | – | – | –
3 | – | – | – | – | 30.2% | CN(C)C(=N)NC(=N)N [METFORMIN] | 13% | 17% | 18% | 17%
4 | – | – | – | – | – | CN(CCOc1ccc(CC2SC(=O)NC2=O)cc1)c1ccccn1 (stereo not drawn) [ROSIGLITAZONE] | 23% | 24% | 21% | 26%
